Measurements taken from patent US5294611A, “Angiotensin II receptor blocking 2,3,6 substituted quinazolinones” (American Cyanamid Company, priority 1993, dated 1994).
pIC50: −log10 of the molar value.

Target: T1, Angiotensin II Receptor (Bos taurus, UniProt P25104)
T1 construct: The brownish tissue forming the adrenal cortex is scraped off and finely minced with scissors before homogenization; tissue local slaughter house (maxwell-Cohen); host or cells: beef adrenal cortex, 100,000 x g microsomal membranes
T1 sequence (P25104 1-359): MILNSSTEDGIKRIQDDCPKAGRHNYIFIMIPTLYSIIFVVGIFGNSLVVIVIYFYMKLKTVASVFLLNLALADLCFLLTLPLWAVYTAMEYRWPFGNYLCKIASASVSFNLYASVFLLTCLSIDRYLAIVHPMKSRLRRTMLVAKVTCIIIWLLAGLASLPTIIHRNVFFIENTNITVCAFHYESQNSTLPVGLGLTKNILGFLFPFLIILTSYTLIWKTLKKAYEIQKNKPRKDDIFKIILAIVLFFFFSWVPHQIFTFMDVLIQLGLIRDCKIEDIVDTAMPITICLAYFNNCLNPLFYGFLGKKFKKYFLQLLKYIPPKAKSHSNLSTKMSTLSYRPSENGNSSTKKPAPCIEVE
Assay: Receptor Binding Assay: displacement of [^125 I](Sar^1,Ile^8)AngII from adrenal cortex microsomal membranes
Parameters: species or system beef (bovine adrenals)
Description: Beef adrenals are obtained from a local slaughter house (maxwell-Cohen). [^125 I](Sar^1,Ile^8)AngII, S.A. 2200 Ci/mmole, is purchased from Dupont (NEN®, Boston, Mass.). All unlabeled AngII analogs, Dimethylsulfoxide (DMSO), nucleotides, bovine serum albumin (BSA) are purchased from Sigma Chemical Co., St. Louis, Mo. U.S.A.
Approximately sixteen (16) to twenty (20) beef adrenal glands are processed as follows: fresh adrenal glands received on crushed ice are cleaned of fatty tissues and the tough membranes encapsulating the glands are removed and discarded. The brownish tissue forming the adrenal cortex is scraped off and finely minced with scissors before homogenization. Care is taken to avoid contamination with medullary tissue during dissection. The scraped cortices are suspended in twenty volumes of an ice-cold buffer medium consisting of 10 mM Tris.HCl (pH 7.4 at 22° C.) and containing 1.0 mM EDTA and 0.2M sucrose. Unless otherwise indicated, all subsequent operations are done at 4° C. […] The homogenate is centrifuged first at low speed (3,000× g) for 10 min. The resulting pellet is discarded and the supernatant fluid recentrifuged at 10,000× g for 15 minutes to give a P2 pellet. This P2 pellet is discarded and the liquid phase is carefully decanted off in clean centrifuge tubes and recentrifuged at high speed (100,000× g) for 60 min. The translucent final pellet is harvested and combined in a small volume (20-50.0 ml) of 50.0 mM Tris.HCl buffer, pH 7.2. A 100 ul aliquot is withdrawn and the protein content of the preparation is determined by the Lowry's method (Lowry, O. H., Rosebrough, N. F., Parr, A. L. and Randall, R. J., Protein measurement with Folin phenol reagent. J. Biol. Chem., 48, 265-275; 1951). The pelleted membrane is reconstituted in 50.0 mM Tris.HCl buffer containing 0.1 mM of phenylmethylsulfonyl fluoride (PMSF) to give approximately a protein concentration of 2.5 mg per ml of tissue suspension. The membrane preparation is finally aliquoted in 1.0 ml volumes and stored at -70° C. until use in the binding assays.
The binding of [^125 I](Sar^1,Ile^8)AngII to microsomal membranes is initiated by the addition of reconstituted membranes (1:10 vols.) in freshly made 50.0 mM Tris.HCl buffer, pH 7.4 containing 0.25% heat inactivated bovine serum albumin (BSA): 80 ul membrane protein (10 to 20 ug/assay) to wells already containing 100 ul of incubation buffer (as described above) and 20 ul [^125 I](Sar^1,ILE^8)AngII (Specific Activity, 2200 Ci/mmole). Non-specific binding is measured in the presence of 1.0 uM unlabeled (Sar^1,ILE^8)AngII, added in 20 ul volume. […] In competition studies, experimental compounds are diluted in dimethylsulfoxide (DMSO) and added in 20 ul to wells before the introduction of tissue membranes. […] Assays are performed in triplicate. The wells are left undisturbed for 60 min. at room temperature. Following incubation, all wells are harvested at once with a Brandel® Harvester especially designed for a 96 well plate (Brandel® Biomedical Research & Development Labs. Inc., Gaithersburg, Md., U.S.A.). The filter discs are washed with 10×1.0 ml of cold 0.9% NaCl to remove unbound ligand. […] This method is routinely used. The filters are removed from the filter grid and counted in a Parkard® Cobra Gamma Counter for 1 min. (Packard Instrument Co., Downers Grove, Ill., U.S.A.). The binding data are analyzed by the non-linear interactive "LUNDON-1" program (LUNDON SOFTWARE Inc., Cleveland, Ohio U.S.A.).

Row | pIC50 | Specific binding of radioligand (microsomal membranes, 60 min, room temperature) | Molecule
1 | 6.80 | – | CCCCc1nc2ccc([C@@H]3[C@@H]4C(=O)OC[C@@H]4ON3C)cc2c(=O)n1Cc1ccc(-c2ccccc2-c2nnn[nH]2)cc1 (relative stereo) [Example 54]
2 | – | greater than 90% | [^125 I](Sar^1,Ile^8) AngII [reference compound]
